Here are results for 3 compounds from patent publication US20240174727A1, “LONG-ACTING NATRIURETIC PEPTIDES AND USES THEREOF” (Eli Lilly and Company, priority 2022, published 2024).

Numbered stars: 1 amine (or outer) side, 2 acyl side, 3 side chain; on linkers, the order of the positions; unused ones are H or OH. Bridge positions count the residues as written; N and C are the ends. Square brackets hold non-standard residues; d marks the D form. * marks the point of attachment. PEG24 = NCCOCCOCCOCCOCCOCCOCCOCCOCCOCCOCCOCCOCCOCCOCCOCCOCCOCCOCCOCCOCCOCCOCCOCCOCCC(=O)O; C20 diacid = O=C(O)CCCCCCCCCCCCCCCCCCC(=O)*; γGlu = O=C(O)[C@H](CCC(=O)[*:2])N[*:1]; CH2 = C([*:1])[*:2]

The subject of this test is plasma cGMP. As to the kind of experiment: In vivo monkey studies, plasma cGMP ELISA. More on the design: species or system male cynomolgus monkeys. As to conditions: for Net cGMP (nM) Change from Baseline 0.083 h: 0.083 h postdose; for Net cGMP (nM) Change from Baseline 0.083 h / Net cGMP (nM) Change from Baseline 0.25 h / Net cGMP (nM) Change from Baseline 0.5 h / Net cGMP (nM) Change from Baseline 1 h / Net cGMP (nM) Change from Baseline 2 h / Net cGMP (nM) Change from Baseline 4 h / Net cGMP (nM) Change from Baseline 8 h / Net cGMP (nM) Change from Baseline 12 h / Net cGMP (nM) Change from Baseline 24 h / Net cGMP (nM) Change from Baseline 36 h / Net cGMP (nM) Change from Baseline 48 h / Net cGMP (nM) Change from Baseline 72 h / Net cGMP (nM) Change from Baseline 96 h / Net cGMP (nM) Change from Baseline 120 h / Net cGMP (nM) Change from Baseline 144 h / Net cGMP (nM) Change from Baseline 168 h: monkey plasma; for Net cGMP (nM) Change from Baseline 0.25 h: 0.25 h postdose; for Net cGMP (nM) Change from Baseline 0.5 h: 0.5 h postdose; for Net cGMP (nM) Change from Baseline 1 h: 1 h postdose; for Net cGMP (nM) Change from Baseline 2 h: 2 h postdose; for Net cGMP (nM) Change from Baseline 4 h: 4 h postdose; for Net cGMP (nM) Change from Baseline 8 h: 8 h postdose; for Net cGMP (nM) Change from Baseline 12 h: 12 h postdose; for Net cGMP (nM) Change from Baseline 24 h: 24 h postdose; for Net cGMP (nM) Change from Baseline 36 h: 36 h postdose; for Net cGMP (nM) Change from Baseline 48 h: 48 h postdose; for Net cGMP (nM) Change from Baseline 72 h: 72 h postdose; for Net cGMP (nM) Change from Baseline 96 h: 96 h postdose; for Net cGMP (nM) Change from Baseline 120 h: 120 h postdose; for Net cGMP (nM) Change from Baseline 144 h: 144 h postdose; for Net cGMP (nM) Change from Baseline 168 h: 168 h postdose; for net cGMP levels (result in words): monkeys, single SC dose, plasma. Here is the method:
In vivo monkey studies were conducted as described in detail below. Young adult-to-adult male cynomolgus monkeys were given a single dose subcutaneously (SC). Blood was collected predose and at various pre-determined timepoints throughout the study period. Aliquot of cynomolgus monkey plasma was received for cyclic cGMP (cGMP) measurement and stored at −80° C. prior to use.
Control plasma was made for determining the recovery rate of spike-in cGMP using Enzo cGMP complete ELISA kit (Enzo Life Sciences, Inc, Farmingdale, NY, cat no. ADI-901-164). Briefly, blood from male Sprague Dawley rats (Inotiv, Indianapolis, IN), about 7 months old, was collected in a BD Vacutainer EDTA tube (Becton Dickinson, Franklin Lakes, NJ, cat no. BD-367856) with volume of approximate 4 mL through retro orbital bleeding. Plasma was prepared by spinning the tube in an Eppendorf Refrigerated Centrifuge 5810R (Brinkman Instruments, Inc, Westbury, NY) at 3500 rpm (3000×g) for 10 min at 4° C. Plasma was collected as Positive Control plasma. Cyclic GMP (cGMP standard from Enzo cGMP complete ELISA kit) was added to the positive control plasma at a final concentration of additional 40 nM. Positive Control and Spiked-in Control plasma were aliquoted and stored at −80° C.
The cGMP content was measured using the Enzo cGMP complete ELISA kit following the manufacturer's directions with modifications as described below. The cGMP standards provided in the kit were diluted 1:3 ranging from 50 nM to 0.023 nM in 1× assay buffer that was diluted in water from 2× assay buffer provided in the kit. The cGMP standards ([…]) were transferred to a 96-well polypropylene plate (Thermo Scientific, cat no. 442587).
Plasma samples were thawed from −80° C. and diluted 1:20 in 1× assay buffer in the above plate with a final volume of 150 μL. Assay buffer was added (150 μL) for both a non-specific binding control (in the absence of cGMP antibody) and a maximum binding control (in the absence of competing cGMP) in duplicate wells. Positive Control and Spiked-in Control plasma were diluted 1:20 in 1× assay buffer with a final volume of 150 μL in duplicate wells of the above plate. All diluted plasma was mixed by pipetting up and down several times.
Acetylation reagent mix was prepared by adding 1-part of acetic anhydride into 2-parts of triethylamine provided in the kit and mixing well using Vortex (Scientific Industries, Inc, Bohemia, NY). All controls, standards, and plasma samples were acetylated by adding 15 μL of acetylation reagent mix into the plate, one column at a time, and shaking for 1 min on a Titer Plate Shaker (Lab-Line Instrument, Inc., Melrose Park, IL) at room temperature. The plate was shaken for an additional 1 min following the acetylation of the last column to ensure the reaction was completed.
Acetylated controls, standard and plasma samples were transferred (100 μL) to an ELISA plate (n=1). Then 50 μL of cGMP conjugate were added to each well followed by the addition of 50 μL cGMP antibody to each well except for two non-specific binding wells, in which 50 μL of 1× assay buffer were added. The plate was then sealed and shaken for 2 h at room temperature on the plate shaker. Following this incubation, the plate was washed five times using 200 μL of 1× wash buffer diluted in water from 5× wash buffer provided in the kit. Then, 200 μL of para-Nitrophenylphosphate (pNpp) were added to each well. The plate was sealed with a new plate sealer and shaken in dark for 1 h at room temperature on the plate shaker. Finally, 50 μL of stop solution were added to each well to stop the enzyme reaction. The plate was then read at 405 nm using SpectraMax Plus (Molecular Devices, San Jose, CA).
The mean absorbance at 405 nm (O.D. 405 nm) for the non-specific binding controls was subtracted from the O.D. 405 nm of all samples. The subtracted O.D. 405 nm of all samples were then normalized with the mean subtracted O.D. 405 nm of the maximum binding controls as B/B0%. […]
(In general: In an ELISA, binding on a coated surface is turned into a signal by an enzyme label.)

On to `CC[C@H](C)[C@@H]1NC(=O)[C@H](CCCNC(=N)N)NC(=O)[C@H](CC(=O)O)NC(=O)[C@H]([C@@H](C)CC)NC(=O)[C@H](CCCNC(=N)N)NC(=O)[C@H](CCCCN)NC(=O)CNC(=O)[C@H](Cc2ccccc2)NC(=O)[C@@H](NC(=O)[C@H](CO)NC(=O)[C@H](CO)NC(=O)[C@H](CCCNC(=N)N)NC(=O)[C@H](CCCNC(=N)N)NC(=O)[C@H](Cc2ccncc2)NC(=O)[C@H](CO)NC(=O)CNC(=O)[C@H](CCCCN)NC(=O)[C@H](CCC(=O)O)NC(=O)[C@H](CCCCN)NC(=O)[C@H](CCC(=O)O)NC(=O)[C@H](CCCCN)NC(=O)[C@H](CCC(=O)O)NC(=O)CC[C@H](NC(=O)CCCCCCCCCCCCCCCCC(=O)O)C(=O)O)CSCSC[C@@H](C(=O)N2CCC[C@H]2C(=O)N[C@@H](CO)C(=O)N[C@@H](Cc2ccccc2)C(=O)N[C@@H](CCCNC(=N)N)C(=O)N[C@@H](Cc2c[nH]cn2)C(=O)NCC(=O)NCC(=O)N[C@@H](CCCCN)C(=O)N[C@@H](CO)C(=O)N[C@@H](CO)C(=O)NCC(=O)N[C@@H](C)C(=O)N2CCC[C@H]2C(=O)N2CCC[C@H]2C(=O)N2CCC[C@H]2C(=O)N[C@@H](CO)C(N)=O)NC(=O)CNC(=O)[C@H](CC(C)C)NC(=O)CNC(=O)[C@H](CO)NC(=O)[C@H](Cc2ccc(O)cc2)NC(=O)[C@H](Cc2c[nH]cn2)NC(=O)CNC1=O` [Example 81], for which the “net cGMP levels (result in words)” value is “increased net cGMP levels”. Also, under “dose 100 nmol/kg”, the “Net cGMP (nM) Change from Baseline 0.083 h” value is recorded as 5.6 nM, the “Net cGMP (nM) Change from Baseline 0.25 h” value turned out to be 32.08 nM, the “Net cGMP (nM) Change from Baseline 0.5 h” value came to 37.47 nM and the “Net cGMP (nM) Change from Baseline 1 h” value turned out to be 43.98 nM. In addition, where the note is “dose 100 nmol/kg”, the “Net cGMP (nM) Change from Baseline 2 h” value was 38.64 nM, the “Net cGMP (nM) Change from Baseline 4 h” value is reported as 31.25 nM, the “Net cGMP (nM) Change from Baseline 8 h” value is given as 23.05 nM and the “Net cGMP (nM) Change from Baseline 12 h” value was 27.6 nM. Where the note is “dose 100 nmol/kg”, the “Net cGMP (nM) Change from Baseline 24 h” value stood at 22.83 nM, the “Net cGMP (nM) Change from Baseline 36 h” value came to 24.25 nM, the “Net cGMP (nM) Change from Baseline 48 h” value is on record as 15.44 nM and the “Net cGMP (nM) Change from Baseline 72 h” value was 12.4 nM. Further, where the note is “dose 100 nmol/kg”, the “Net cGMP (nM) Change from Baseline 96 h” value is reported as 10.48 nM, the “Net cGMP (nM) Change from Baseline 120 h” value came to 12.63 nM, the “Net cGMP (nM) Change from Baseline 144 h” value was 9.54 nM and the “Net cGMP (nM) Change from Baseline 168 h” value is 7 nM.

Take “{C20 diacid-γGlu}-EKEKEKGEKPRSSCFGKRIDRIGHQSGLGCPSFRHGSPSSGAPPPS-NH2 (linker 14-30 via CH2) [Example 127]”: the “net cGMP levels (result in words)” value was “increased net cGMP levels”. For the same compound, for the setting “dose 50 nmol/kg”, the “Net cGMP (nM) Change from Baseline 0.083 h” value was -0.87 nM, the “Net cGMP (nM) Change from Baseline 0.25 h” value is given as 4.09 nM, the “Net cGMP (nM) Change from Baseline 0.5 h” value was 8.84 nM and the “Net cGMP (nM) Change from Baseline 1 h” value is on record as 8.13 nM. Further, where the note is “dose 50 nmol/kg”, the “Net cGMP (nM) Change from Baseline 2 h” value turned out to be 8.92 nM, the “Net cGMP (nM) Change from Baseline 4 h” value came out at 10.25 nM, the “Net cGMP (nM) Change from Baseline 8 h” value is listed as 13.28 nM and the “Net cGMP (nM) Change from Baseline 12 h” value is 18.76 nM. For the setting “dose 50 nmol/kg”, the “Net cGMP (nM) Change from Baseline 24 h” value was 20.16 nM, the “Net cGMP (nM) Change from Baseline 36 h” value came to 19.43 nM, the “Net cGMP (nM) Change from Baseline 48 h” value was 18.43 nM and the “Net cGMP (nM) Change from Baseline 72 h” value was 12.9 nM. Moreover, under “dose 50 nmol/kg”, the “Net cGMP (nM) Change from Baseline 96 h” value was found to be 11.67 nM, the “Net cGMP (nM) Change from Baseline 120 h” value was determined as 9.32 nM, the “Net cGMP (nM) Change from Baseline 144 h” value was 9.3 nM and the “Net cGMP (nM) Change from Baseline 168 h” value was found to be 9.36 nM.

As for “{C20 diacid-γGlu}-EKEKEKG[PEG24]EKPRSSCFGKRIDRIGHQSGLGCPSFRHSGSPSSGAPPPSG-NH2 (linker 15-31 via CH2) [Example 132, HOOC-(CH2)18-CO-(γGlu)-EKEKEKG-PEG24-EKPRSS[CFGKRIDRIGHQSGLGCJPSFRHSGSPSSGAPPPSG-NH2]”, the “net cGMP levels (result in words)” value is “increased net cGMP levels”. In addition, under “dose 25 nmol/kg”, the “Net cGMP (nM) Change from Baseline 0.083 h” value is on record as 2.96 nM, the “Net cGMP (nM) Change from Baseline 0.25 h” value worked out at 11.54 nM, the “Net cGMP (nM) Change from Baseline 0.5 h” value worked out at 25 nM and the “Net cGMP (nM) Change from Baseline 1 h” value turned out to be 29.41 nM. Also, for the setting “dose 25 nmol/kg”, the “Net cGMP (nM) Change from Baseline 2 h” value came to 28.64 nM, the “Net cGMP (nM) Change from Baseline 4 h” value stood at 28.7 nM, the “Net cGMP (nM) Change from Baseline 8 h” value is 24.12 nM and the “Net cGMP (nM) Change from Baseline 12 h” value worked out at 20.96 nM. Moreover, under “dose 25 nmol/kg”, the “Net cGMP (nM) Change from Baseline 24 h” value was 19.79 nM, the “Net cGMP (nM) Change from Baseline 36 h” value is given as 17.54 nM, the “Net cGMP (nM) Change from Baseline 48 h” value came out at 12.7 nM and the “Net cGMP (nM) Change from Baseline 72 h” value was determined as 13.11 nM. Moreover, where the note is “dose 25 nmol/kg”, the “Net cGMP (nM) Change from Baseline 96 h” value was determined as 11.68 nM, the “Net cGMP (nM) Change from Baseline 120 h” value came to 13.22 nM, the “Net cGMP (nM) Change from Baseline 144 h” value is 11.64 nM and the “Net cGMP (nM) Change from Baseline 168 h” value is 7.08 nM.
